Values after ≈ are worked out from the molar mass of the structure shown. Like-named read-outs stand apart in the source and are kept apart here.
Legend:
Assay type in all cases: cell-based
[1] = LDH cytotoxic activity assay, C6; details: rat, C6 glioma cells
How it was run: (§1)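 Harvest ~80%-confluent cells with trypsin-EDTA, seed ~5 × 10^3 per well in DMEM or RPMI 1640 containing 10% FBS, then add compound at 25–100 μg/mL (four levels) for 24 h at 37 °C. Finish by reading LDH activity at 492–630 nm.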

[2] = LDH cytotoxic activity assay, HeLa; details: human, HeLa cells
How it was run: as §1

MCF7 = assay: cells; details: Homo sapiens
How it was run: (§2)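 In this MTT proliferation screen, formazan formed over 4 h was read at 560 nm against a 690 nm reference. Each line was tested at least three times, and the IC50 was taken as the concentration inhibiting half of the cells.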

in vitro = details: human, LC50
How it was run: as §2

normal FL cells = assay: cells; details: FL normal cells, MTT
How it was run: as §2

[3] = LDH cytotoxic activity assay, HT29; details: human, HT29 cells
How it was run: as §1

[4] = tested on: S. aureus MSSA ATCC 29213; assay: Microdilution MIC assay; details: Staphylococcus aureus, 24 h, S. aureus MSSA ATCC 29213, 24 h at 35 °C; read-out: MIC
How it was run: (§3)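 Read-out is visual: absence of turbidity after 24 h at 35 °C defines the MIC, the lowest such concentration in a microwell dilution series.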

[5] = tested on: P. aeruginosa AGME ATCC 27853; assay: Microdilution MIC assay; details: Pseudomonas aeruginosa, ATCC27853; P. aeruginosa AGME ATCC 27853, 24 h at 35 °C
How it was run: as §3

E. coli ESBL ATCC 35218 = assay: Microdilution MIC assay; details: Escherichia coli, ATCC35218; E. coli ESBL ATCC 35218, 24 h at 35 °C
How it was run: as §3

[6] = tested on: E. faecalis VRE ATCC 19433; assay: Microdilution MIC assay; details: Enterococcus faecalis; E. faecalis VRE ATCC 19433, 24 h at 35 °C
How it was run: as §3

E. faecalis ATCC 29212 = assay: Microdilution MIC assay; details: E. faecalis ATCC 29212, 24 h at 35 °C
How it was run: as §3

S. aureus ATCC 25923 = assay: Microdilution MIC assay; details: Staphylococcus aureus, ATCC25923, 24 h, S. aureus ATCC 25923, 24 h at 35 °C; read-out: MIC
How it was run: as §3

S. gordonii NCTC 7870 = assay: Microdilution MIC assay; details: Streptococcus gordonii, NCTC7870; S. gordonii NCTC 7870, 24 h at 35 °C
How it was run: as §3

S. mutans ATCC 35668 = assay: Microdilution MIC assay; details: S. mutans ATCC 35668, 24 h at 35 °C
How it was run: as §3

E. coli ATCC 25922 = assay: Microdilution MIC assay; details: Escherichia coli, ATCC25922; E. coli ATCC 25922, 24 h at 35 °C
How it was run: as §3

[7] = tested on: A. actinomycetemcomitans ATCC 33384; assay: Microdilution MIC assay; details: Aggregatibacter actinomycetemcomitans, ATCC33384; A. actinomycetemcomitans ATCC 33384, 24 h at 35 °C
How it was run: as §3

[8] = tested on: S. aureus MRSA ATCC 46300; assay: Microdilution MIC assay; details: Staphylococcus aureus; S. aureus MRSA ATCC 46300, 24 h at 35 °C; read-out: MIC
How it was run: as §3

SMILES: CC(=O)OC[C@H]1O[C@@H](Nc2nc(-c3ccncc3)cc(-c3cccc(C)c3)n2)[C@H](OC(C)=O)[C@@H](OC(C)=O)[C@@H]1OC(C)=O [Compound 15, 2,3,4,6-tetra-O-acetyl-N-[4-(3-methylphenyl)-6-pyridin-4-ylpyrimidin-2-yl]-β-D-glucopyranosylamine]
- cytotoxicity at 24 h, 25 μg/mL ([1]; C6, 25 μg/mL): 20.4%
- cytotoxicity at 24 h, 50 μg/mL ([1]; C6, 50 μg/mL): 55%
- cytotoxicity at 24 h, 75 μg/mL ([1]; C6, 75 μg/mL): 77.1%
- cytotoxicity at 24 h, 100 μg/mL ([1]; C6, 100 μg/mL): 83.3%
- cytotoxicity at 24 h, 25 μg/mL ([2]; 25 μg/mL): 18.4%
- cytotoxicity at 24 h, 50 μg/mL ([2]; 50 μg/mL): 31.7%
- cytotoxicity at 24 h, 75 μg/mL ([2]; 75 μg/mL): 37.1%
- cytotoxicity at 24 h, 100 μg/mL ([2]; 100 μg/mL): 56%
- LC50 (concentration causing 50% net cell loss relative to time zero) (MCF7; MCF7, read-out: LC50): > 500 µg/mL
- GI50 (MCF7; MCF7, MTT): 4.1 µg/mL (≈ 6.92 µM)
- IC50 (MCF7; MCF7, MTT, read-out: IC50): > 500 µg/mL
- IC (total growth inhibition) (MCF7; MCF7, MTT, read-out: TGI): > 500 µg/mL
- LC50 (concentration causing 50% net cell loss) (in vitro): > 500 µg/mL
- GI50 (normal FL cells): 26.7 µg/mL (≈ 45 µM)
- IC50 (normal FL cells; read-out: IC50): > 500 µg/mL
- IC (total growth inhibition) (normal FL cells; read-out: TGI): > 500 µg/mL
- cytotoxicity at 24 h, 25 μg/mL ([3]; HT29, 25 μg/mL): 23.8%
- cytotoxicity at 24 h, 50 μg/mL ([3]; HT29, 50 μg/mL): 45%
- cytotoxicity at 24 h, 75 μg/mL ([3]; HT29, 75 μg/mL): 62.6%
- cytotoxicity at 24 h, 100 μg/mL ([3]; HT29, 100 μg/mL): 78.6%
- MIC [4]: 250 µg/mL (≈ 422 µM)
- MIC [5]: > 1000 µg/mL
- MIC (E. coli ESBL ATCC 35218): > 1000 µg/mL
- MIC [6]: 1000 µg/mL (≈ 1690 µM)
- MIC (E. faecalis ATCC 29212): 31.25 µg/mL (≈ 52.7 µM)
- MIC (E. faecalis ATCC 29212; Enterococcus faecalis, ATCC29212, 24 h, read-out: MIC): 31.2 to 125 µg/mL (≈ 52.7 to 211 µM)
- MIC (S. aureus ATCC 25923): 500 µg/mL (≈ 844 µM)
- MIC (S. gordonii NCTC 7870): > 1000 µg/mL
- MIC (S. mutans ATCC 35668): 62.5 µg/mL (≈ 105 µM)
- MIC (S. mutans ATCC 35668; Streptococcus mutans, ATCC35668, 24 h, read-out: MIC): 62.5 to 125 µg/mL (≈ 105 to 211 µM)
- MIC (E. coli ATCC 25922): > 1000 µg/mL
- MIC [7]: > 1000 µg/mL
- MIC [8]: 250 µg/mL (≈ 422 µM)
